Results: patent US20240085425A1, “BIOMARKER AND APPLICATION THEREOF” (ADLAI NORTYE BIOPHARMA CO., LTD., priority 2022, published 2024)

Legend:
Wnt pathway TCF/LEF = test: Colo205-LUC-TCF/LEF luciferase reporter assay with or without MG132; format: cell-based; details: Colo205-LUC-TCF/LEF cells, 4 hours
Description: The Colo205-LUC-TCF/LEF cell line is a reporter tool cell stably transfected with the pGL4.49-LUC2-TCF/LEF vector, and its Wnt/β-catenin pathway is continuously activated. After adding inhibitor, the expression of firefly luciferase regulated by the TCF/LEF cis-element decreased, and after adding the detection substrate, the detected light signal decreased accordingly, thus the inhibitory effect of the compound was detected.
Add 100 μL of the compound AN10250484 at a maximum concentration of 20 μM to each well of the 96-well cell culture plate, and make a 3-fold gradient dilution of the compound concentration. Then inoculate each well with 10,000 stable Colo205-LUC-TCF/LEF cells containing 2 μM MG132 (Proteasome inhibitor) (MCE: HY-13259) or 10,000 Colo205-LUC-TCF/LEF cells containing control solvents, which were treated accordingly as positive and negative control wells. Place the cells in a 5% CO2 cell incubator and incubate at 37° C. for 4 hours. After 4 hours, remove the culture medium, add 100 μL of reagent (Promega) containing the corresponding firefly luciferase substrate to each well, and measure the luciferase reporter gene activity. Use SpectraMax to read the luminescence intensity in full-wavelength mode.

[1] = test system: non-phosphorylated β-catenin; test: Western blot of non-phosphorylated β-catenin content in DU4475 cells; format: cell-based; details: overnight, read-out: Non-phosphorylated β-catenin content inhibition IC50
From the text: The Wnt signaling pathway is a key pathway for abnormal tumor growth. In colon cancer, liver cancer, pancreatic cancer and other cancers, a large number of patients have abnormal activation of the Wnt signaling pathway. The Wnt signaling pathway depends on the fine balance of β-catenin protein level. When Wnt signaling is not activated, β-catenin is phosphorylated by CK1 and APC/Axin/GSK-3β complexes, and the β-catenin protein is kept at a low level through ubiquitin-dependent proteasome degradation. When the Wnt signaling pathway is activated, β-catenin maintains a stable state of non-phosphorylation, and non-phosphorylated β-catenin can be transported into the nucleus through Rac1 and other factors, and plays a transcriptional regulatory role by binding to LEF/TCF transcription factors in the nucleus, activates downstream target genes such as C-myc and Cyclin D1, and promotes cell proliferation. Therefore, abnormal activation of the Wnt signaling pathway in tumor cells will lead to abnormal proliferation of tumors. […]
Add 500 μL of the compound with the highest concentration shown in FIG. 1 to each well of the 6-well cell culture plate, and make a 10-fold gradient dilution of the compound concentration. […] Load the protein sample directly to the SDS-PAGE gel for electrophoresis separation, transfer the protein on the SDS-PAGE gel to the PVDF membrane; after the transfer was completed, the protein was blocked by Western blocking solution, then Rabbit anti-β-catenin non-phospho S37/After T41 (ab278503) was added and the protein was incubated at room temperature for one hour and washed, the content of non-phosphorylated β-catenin was detected by incubation with Goat Anti-Rabbit IgG H&L (HRP) (ab6721). […]

| Inhibitory effect of the compound on the transcription of TCF/LEF after adding MG132 (Wnt pathway TCF/LEF; 2 μM MG132, FIG. 2) | Transcriptional activity of Wnt pathway TCF/LEF (luciferase reporter), in words (Wnt pathway TCF/LEF; control solvent, FIG. 2) | IC50 [1] [nM] | Structure (SMILES) |
| --- | --- | --- | --- |
| significantly reduced | inhibiting Wnt pathway TCF/LEF | 29 | Cc1nc(C(F)(F)F)ncc1Oc1ccc(CNc2nc(C)c3c(n2)N(C)[C@@H](C)C(=O)N3)cn1 [AN10250484] |
| – | – | 157 | [2H]C([2H])([2H])N1c2nc(NCc3ccc(Oc4cnc(C(F)(F)F)nc4)nc3)nc3c2N(CCC3)C(=O)[C@]1(C)CO [AN10250399] |
